Biological target: recombinant human SYK (GST-hSYK fusion protein) (Homo sapiens, UniProt P43405)
Test: biochemical
Details: rhSYK Activity (IC50), recombinant human GST-SYK 5 pM, ATP 25 μM, biotinylated substrate peptide 250 nM, HTRF, 10-dose titration
Text: Homogeneous Time-Resolved Fluorescence (HTRF) Assay for the Recombinant Human SYK Enzyme:

IC50 | Structure (SMILES)
< 100 nM | Cc1cc(Nc2nccc(C(F)(F)F)n2)cc(-c2cnc(C(=O)N3CCC[S+]([O-])CC3)s2)c1 (centres unmarked) [Example 87B-13]
100 to 1000 nM | Cc1cc(Nc2nccc(C(F)(F)F)n2)cc(-c2cnc(C(=O)N3CCS(=O)(=O)CC3)s2)c1 [Example 87B-14]
1000 to 10000 nM | Cc1cc(Nc2nccc(C(F)(F)F)n2)cc(-c2cnc(C(=O)N3CCN(CC(F)(F)F)CC3)s2)c1 [Example 87B-15]
< 100 nM | Cc1cc(Nc2nccc(C(F)(F)F)n2)cc(-c2cnc(C(=O)N3CC[C@H](CO)C3)s2)c1 [Example 87B-16]
< 100 nM | Cc1cc(Nc2nccc(C(F)(F)F)n2)cc(-c2cnc(C(=O)N3CCC(O)C3)s2)c1 (centres unmarked) [Example 87B-17]
< 100 nM | Cc1cc(Nc2nccc(C(F)(F)F)n2)cc(-c2cnc(C(=O)N3C[C@@H](O)[C@@H](O)C3)s2)c1 [Example 87B-18]
< 100 nM | Cc1cc(Nc2nccc(C(F)(F)F)n2)cc(-c2cnc(C(=O)N3CCC(C(=O)O)CC3)s2)c1 [Example 87B-19]
< 100 nM | Cc1cc(Nc2nccc(C(F)(F)F)n2)cc(-c2cnc(C(=O)N3CC(O)CC3C(=O)O)s2)c1 (centres unmarked) [Example 87B-20]
< 100 nM | COC(=O)C1CC(O)CN1C(=O)c1ncc(-c2cc(C)cc(Nc3nccc(C(F)(F)F)n3)c2)s1 (centres unmarked) [Example 87B-21]
< 100 nM | Cc1cc(Nc2nccc(C(F)(F)F)n2)cc(-c2cnc(C(=O)N3CCC(O)(C(=O)O)CC3)s2)c1 [Example 87B-22]
< 100 nM | Cc1cc(Nc2nccc(C(F)(F)F)n2)cc(-c2cnc(CNCC3CCC(=O)N3)s2)c1 (centres unmarked) [Example 88, 5-[({[5-(3-methyl-5-{[4-(trifluoromethyl)pyrimidin-2-yl]amino}phenyl)-1,3-thiazol-2-yl]-methyl}amino)methyl]pyrrolidin-2-one]
< 100 nM | Cc1cc(Nc2nccc(C(F)(F)F)n2)cc(-c2cnc(CNc3cncnc3)s2)c1 [Example 88A-1]
< 100 nM | Cc1cc(Nc2nccc(C(F)(F)F)n2)cc(-c2cnc(CNCC(O)C(F)F)s2)c1 (centres unmarked) [Example 88A-2]
< 100 nM | Cc1cc(Nc2nccc(C(F)(F)F)n2)cc(-c2cnc(CNCc3n[nH]c(=O)[nH]3)s2)c1 [Example 88A-3]
< 100 nM | Cc1cc(Nc2nccc(C(F)(F)F)n2)cc(-c2cnc(CNC3CCS(=O)(=O)C3)s2)c1 (centres unmarked) [Example 88A-5]
< 100 nM | Cc1cc(Nc2nccc(C(F)(F)F)n2)cc(-c2cnc(CN(C)C(C3CC3)C3CC3)s2)c1 [Example 88A-7]
< 100 nM | C=C(F)CNCc1ncc(-c2cc(C)cc(Nc3nccc(C(F)(F)F)n3)c2)s1 [Example 88A-8]
< 100 nM | Cc1cc(Nc2nccc(C(F)(F)F)n2)cc(-c2cnc(CNC(C)c3ccccn3)s2)c1 (centres unmarked) [Example 88A-9]
< 100 nM | Cc1cc(Nc2nccc(C(F)(F)F)n2)cc(-c2cnc(CNc3cn(C(C)C)nn3)s2)c1 [Example 88A-10]
< 100 nM | Cc1cc(Nc2nccc(C(F)(F)F)n2)cc(-c2cnc(CN(C)CCO)s2)c1 [Example 88A-12]
< 100 nM | Cc1cc(Nc2nccc(C(F)(F)F)n2)cc(-c2cnc(CN(CCO)CCO)s2)c1 [Example 88A-13]
< 100 nM | Cc1cc(Nc2nccc(C(F)(F)F)n2)cc(-c2cnc(CNC(C)(CO)CO)s2)c1 [Example 88A-14]
< 100 nM | Cc1cc(Nc2nccc(C(F)(F)F)n2)cc(-c2cnc(CNC(C)CO)s2)c1 (centres unmarked) [Example 88A-15]
< 100 nM | CCC(CO)NCc1ncc(-c2cc(C)cc(Nc3nccc(C(F)(F)F)n3)c2)s1 (centres unmarked) [Example 88A-16]
< 100 nM | Cc1cc(Nc2nccc(C(F)(F)F)n2)cc(-c2cnc(CNCC(C)O)s2)c1 (centres unmarked) [Example 88A-17]
< 100 nM | Cc1cc(Nc2nccc(C(F)(F)F)n2)cc(-c2cnc(CNCCO)s2)c1 [Example 88A-18]
< 100 nM | Cc1cc(Nc2nccc(C(F)(F)F)n2)cc(-c2cnc(CNCCCO)s2)c1 [Example 88A-19]
< 100 nM | Cc1cc(Nc2nccc(C(F)(F)F)n2)cc(-c2cnc(CNCCCCO)s2)c1 [Example 88A-20]
< 100 nM | Cc1cc(Nc2nccc(C(F)(F)F)n2)cc(-c2cnc(CNC3(C(=O)O)CC3)s2)c1 [Example 88A-21]
